In experiment [1] the target is T1, M. tuberculosis RecA intein (Mycobacterium tuberculosis, UniProt P9WHJ3).
T1 sequence (P9WHJ3 with tags, fused parts or gaps): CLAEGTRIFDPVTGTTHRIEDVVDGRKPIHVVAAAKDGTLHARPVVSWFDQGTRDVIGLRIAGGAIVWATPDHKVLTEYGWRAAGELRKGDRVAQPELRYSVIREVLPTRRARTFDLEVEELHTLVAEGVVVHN
It is filed as biochemical.

A further experiment has as its system BCG. In words: BCG MIC. It is filed as cell-based.
In experiment [2] the test system is Mtu H37Rv. In words: Mtu H37Rv MIC. In kind it is cell-based, M. tuberculosis.
In experiment [3] the test system is Mtu H37Rv. In words: Alamar Blue reduction inhibition measured by TAACF. The conditions noted are these: Mycobacterium tuberculosis, at 6.25 μg/ml, as measured by TAACF. In kind it is cell-based, M. tuberculosis. A general note: Alamar Blue is a resazurin reagent that responds to reducing activity.

In brackets after ≈: the same amount, converted by molar mass. Marks after values point to notes of the source that are not given here.

By IC50 is commonly meant the concentration needed to halve the response being measured. Consider `CC1(C)CC(=O)c2c(S(C)(=O)=O)sc(C(=O)OCc3ccccc3)c2C1` [Compound 30], for which, in experiment [1], the IC50 is 5 µM. Further, the “BCG MIC” value with BCG amounted to 20 µg/mL.

In turn, `O=C(CCl)c1ccc(Cc2ncc(C(F)(F)F)cc2Cl)s1` [Compound 57] returned a half-maximal inhibitory concentration (IC50) in experiment [1] of less than 5 µM.

Turning to `O=[N+]([O-])c1cc(C(F)(F)F)cc([N+](=O)[O-])c1Sc1nc2ccccc2[nH]1` [Compound 55], the IC50 in experiment [1] came out at 15 µM. Also, the “BCG MIC” value in the experiment on BCG turned out to be 5 µg/mL. For the same compound, the “Mtu H37Rv MIC” value in the experiment with Mtu H37Rv [2] was determined as 20 µg/mL.

The compound `CCOC(=O)c1cc(C#N)c(Sc2nnc(SCC3CC3)s2)nc1C(F)(F)F` [Compound 71] displayed an IC50 in experiment [1] of less than 5 µM. The “BCG MIC” value with BCG was found to be 10 µg/mL. Also, in the experiment on Mtu H37Rv [2], the “Mtu H37Rv MIC” value is 10 µg/mL.

Consider `Oc1cc2c(cc1C(c1ccc(C(F)(F)F)cc1)N1CCOCC1)OCO2` (stereo not drawn) [Compound 69], for which the half-maximal inhibitory concentration (IC50) in experiment [1] is less than 5 µM.

The compound `CCOC(=O)c1cc(C#N)c(Sc2nnc(SC)s2)nc1C(F)(F)F` [Compound 72] showed a 50% inhibitory concentration (IC50) in experiment [1] of less than 5 µM. Further, in the experiment on BCG, the “BCG MIC” value was found to be 10 µg/mL. Besides, the “Mtu H37Rv MIC” value in the experiment with Mtu H37Rv [2] came to 10 µg/mL.

Consider `COc1ccc(NC(=O)C(Cl)=C(Cl)[S+]([O-])Cc2ccc(C)cc2)cn1` (stereo not drawn) [Compound 43], for which 3 µM corresponded to half-maximal inhibition in experiment [1] (IC50). Besides, the “BCG MIC” value with BCG was found to be 1 µg/mL. Besides, in the experiment with Mtu H37Rv [2], the “Mtu H37Rv MIC” value amounted to 2.5 µg/mL.

In experiment [1], `[O-][S+](c1ccc(C(F)(F)F)cc1)c1cnn2c(Cl)nnc2c1` (stereo not drawn) [Compound 45] had an IC50 of 5 µM. Also, the “BCG MIC” value in the experiment on BCG was found to be 5 µg/mL. Also, the “Mtu H37Rv MIC” value with Mtu H37Rv [2] turned out to be 2.5 µg/mL.

Take `CSC(Nc1ccc(F)cc1)=C(C#N)C(=O)c1ccco1` [Compound 22]: in experiment [1], the half-maximal inhibitory concentration (IC50) amounted to 3 µM. Further, the “Mtu H37Rv MIC” value with Mtu H37Rv [2] stood at 20 µg/mL.

For `O=C(Nn1c(C2CCCCC2)nc2ccccc2c1=O)c1cc([N+](=O)[O-])cc([N+](=O)[O-])c1Cl` [Compound 53], the IC50 in experiment [1] came out at 1 µM. The “BCG MIC” value with BCG is approximately 20 µg/mL.

Compound `c1ccc(-c2cnc3nonc3n2)cc1` [Compound 74] displayed an IC50 in experiment [1] of less than 5 µM.

The compound `O=C(c1nnsc1[S+]([O-])c1ccc(Cl)cc1)N1CCCCC1` (stereo not drawn) [Compound 11] came in with an IC50 in experiment [1] of 4 µM. For the same compound, in the experiment with BCG, the “BCG MIC” value stood at 5 µg/mL. For the same compound, the “Mtu H37Rv MIC” value in the experiment with Mtu H37Rv [2] was 5 µg/mL.

`Cc1cc(S(=O)(=O)c2ccc(C(F)(F)F)cc2[N+](=O)[O-])c(Cl)cc1Cl` [Compound 66] returned an IC50 in experiment [1] of less than 5 µM. Further, the “BCG MIC” value in the experiment on BCG was more than 20 µg/mL.

As a reminder, the inhibition is the percentage by which the read-out fell short of the control. Read a high inhibition as strong suppression. Turning to `O=S(=O)(c1ccc(Cl)c(Cl)c1)c1snnc1-c1ccccc1` [Compound 7], the inhibition at 6.25 µg/mL in the experiment with Mtu H37Rv [3] was 96%.

In experiment [1], `CS(=O)(=O)c1cc(C(F)(F)F)cc(S(C)(=O)=O)c1S(C)(=O)=O` [Compound 3] showed a half-maximal inhibitory concentration (IC50) of 10 µM. Moreover, in the experiment with BCG, the “BCG MIC” value came to 20 µg/mL. Also, the “Mtu H37Rv MIC” value in the experiment with Mtu H37Rv [2] was 20^a μg/ml.

Turning to `O=C(Oc1ccc(Br)cc1)c1ccco1` [Compound 76], the half-inhibitory concentration (IC50) in experiment [1] came to 8 µM. This lies in the single-digit micromolar range.

In experiment [1], `O=C(Sc1ccccc1)c1ccc2ncsc2c1` [Compound 68] displayed a concentration for half-maximal inhibition (IC50) of 8 µM.

In the case of `CCOC(=O)c1nnc(-c2ccccc2)nc1Sc1ccccc1C(=O)OC` [Compound 41], the half-inhibitory concentration (IC50) in experiment [1] was found to be 2 µM.

With `COc1ccc(NC(=O)C(Cl)=C(Cl)[S+]([O-])Cc2ccccc2)cn1` (stereo not drawn) [Compound 9], inhibition in experiment [1] was half-maximal at 10 µM (IC50). The “BCG MIC” value in the experiment with BCG is 5 µg/mL. The “Mtu H37Rv MIC” value with Mtu H37Rv [2] is recorded as 5^d μg/ml.

As for `Oc1cc2c(cc1C(c1ccc(Cl)c(Cl)c1)N1CCCC1)OCO2` (stereo not drawn) [Compound 1], the concentration for half-maximal inhibition (IC50) in experiment [1] was 5 µM.

In experiment [1], `O=S(=O)(c1ccc(Br)cc1)c1snnc1-c1ccccc1` [Compound 6] came in with a half-maximal inhibitory concentration (IC50) of 4 µM. The same compound showed an inhibition at 6.25 µg/mL in the experiment on Mtu H37Rv [3] of 32%.

For the compound `O=C(Nc1ccc(F)cc1)c1nnsc1S(=O)(=O)c1ccc(Cl)cc1` [Compound 12], the half-maximal inhibitory concentration (IC50) in experiment [1] came out at 3 µM. Besides, in the experiment with BCG, the “BCG MIC” value is 20 µg/mL. The “Mtu H37Rv MIC” value in the experiment with Mtu H37Rv [2] was found to be 10 µg/mL.

Turning to `O=C1CSC(c2ccc(Cl)cc2)C(=O)N1c1ccc(C(F)(F)F)cc1` (stereo not drawn) [Compound 8], the IC50 in experiment [1] was found to be 5 µM.

`N#Cc1nccnc1S(=O)(=O)c1cccs1` [Compound 31] displayed an IC50 in experiment [1] of 5 µM. For the same compound, the “BCG MIC” value in the experiment with BCG was 6 µg/mL. Further, in the experiment with Mtu H37Rv [2], the “Mtu H37Rv MIC” value was determined as 10 µg/mL.

With `C=CCn1c(Sc2ncnc3c2sc(=S)n3CC=C)nnc1-c1ccccc1` [Compound 27], the 50% inhibitory concentration (IC50) in experiment [1] came to 2 µM. That is a single-digit micromolar value.

In the case of `O=C(Oc1ccc(C=Nc2ccc(F)cc2)cc1)c1ccco1` [Compound 77], the IC50 in experiment [1] came to 30 µM.

In experiment [1], `Cn1cc(C(=O)c2cccc(Cl)c2Cl)cc1C(=O)C(Cl)(Cl)Cl` [Compound 40] gave a half-maximal inhibitory concentration (IC50) of 5 µM. Compared with the last compound, the IC50 is about 6-fold lower.

On to `N#CC(N)=C(C#N)NCc1ccccc1Sc1ccc(Cl)cc1` [Compound 29], for which, in experiment [1], half-maximal inhibition (IC50) required 30 µM.

In experiment [1], `Cc1nn(C(N)=S)c(O)c1C(c1cccc(Cl)c1Cl)C(C#N)C#N` (stereo not drawn) [Compound 81] came in with an IC50 of 12 µM.

With `CCCN(CCC)S(=O)(=O)c1ccc(C(=O)SCC(=O)OCC)cc1` [Compound 2], the half-inhibitory concentration (IC50) in experiment [1] was determined as 8 µM.

Usually MIC stands for the least concentration at which growth counts as inhibited. Regarding `O=S(=O)(c1cccc(C(F)(F)F)c1)c1snnc1-c1ccccc1` [Compound 35], in experiment [1], 1 µM corresponded to half-maximal inhibition (IC50). For the same compound, the minimum inhibitory concentration (MIC) with BCG (Mycobacterium tuberculosis variant bovis BCG, BCG, read-out: BCG MIC) worked out at 20 µg/mL (≈ 54 µM).

Consider `O=C(Oc1cc(OC(=O)c2ccco2)cc(OC(=O)c2ccco2)c1)c1ccco1` [Compound 75], for which the half-inhibitory concentration (IC50) in experiment [1] was less than 5 µM.

The compound `O=C(Oc1ccc(Cl)cc1)c1snnc1-c1ccccc1` [Compound 23] gave a 50% inhibitory concentration (IC50) in experiment [1] of 3 µM. That is a single-digit micromolar value.

In experiment [1], `O=C(Nc1ccccc1)c1nnsc1S(=O)(=O)c1ccc(Cl)cc1` [Compound 10] returned an IC50 of 8 µM.

For `O=C(c1c[nH]c(C(=O)C(Cl)(Cl)Cl)c1)c1ccc(Cl)cc1Cl` [Compound 62], the IC50 in experiment [1] was less than 5 µM.

Regarding `CC(=O)c1cc([N+](=O)[O-])c(Sc2ccc(Cl)cc2)s1` [Compound 4], in experiment [1], the midpoint of inhibition, the IC50, lay at 5 µM. That is a single-digit micromolar value.

`COC(=O)c1sc(S(C)(=O)=O)c(C#N)c1-c1cc(C(C)(C)C)oc1C` [Compound 33] returned an IC50 in experiment [1] of 4 µM.

In turn, `CC1(C)CC(=O)C2(C(=O)C1)C(c1ccc(Cl)cc1Cl)C2(C#N)C#N` (stereo not drawn) [Compound 37] came in with an IC50 in experiment [1] of 5 µM.

`N#CC1(C#N)C(c2cccc(I)c2)C(C(N)=O)N2C=Cc3ccccc3C21` (stereo not drawn) [Compound 17] registered an IC50 in experiment [1] of 20 µM.

For the compound `Cc1cc(Oc2c([N+](=O)[O-])cc(C(F)(F)F)cc2[N+](=O)[O-])ccc1Cl` [Compound 64], the IC50 in experiment [1] was found to be 6 µM.

`N#CC1(C#N)C(c2ccccc2Cl)C1(C#N)C#N` [Compound 21] returned an IC50 in experiment [1] of 8 µM. This IC50 and that of the compound before are within 1.5-fold of each other.

Take `O=C(OCn1ncc(Cl)c(Cl)c1=O)c1cccc(C(F)(F)F)c1` [Compound 38]: in experiment [1], the half-maximal inhibitory concentration (IC50) stood at 0.8 µM.

In experiment [1], `O=C(CCl)N1CCN2C(=O)c3ccccc3C12c1ccc(Cl)cc1` (stereo not drawn) [Compound 13] came in with an IC50 of 4 µM. Further, the “BCG MIC” value with BCG is 20 µg/mL. The “Mtu H37Rv MIC” value with Mtu H37Rv [2] came out at 10 µg/mL.

The compound `CCOC(=O)c1cnc2c(F)ccc(F)c2c1Oc1cncc(Cl)c1` [Compound 67] showed a 50% inhibitory concentration (IC50) in experiment [1] of less than 5 µM.

The compound `N#CCSc1ccc(C#N)cc1` [Compound 24] returned an IC50 in experiment [1] of 11 µM. Also, the MIC with Mtu H37Rv [2] (Mycobacterium tuberculosis, H37RV) came to 5 µg/mL (≈ 28.7 µM).

For the compound `Oc1ccc(Br)cc1CNc1cccc(C(F)(F)F)c1` [Compound 70], in experiment [1], 12 µM corresponded to half-maximal inhibition (IC50).

As to `CCOC(=O)CSc1nc2c(c(-c3cccs3)c1C#N)CN(C)CC2` [Compound 56], in experiment [1], the IC50 is less than 35 µM.

In turn, `O=C(c1c[nH]c(C(=O)C(Cl)(Cl)Cl)c1)c1cccc(Cl)c1Cl` [Compound 59] came in with an IC50 in experiment [1] of less than 5 µM.

Compound `COc1cccc(N(NC(=O)C(O)(c2cccc(C(F)(F)F)c2)c2cccc(C(F)(F)F)c2)C(=O)CCl)c1` [Compound 51] registered a 50% inhibitory concentration (IC50) in experiment [1] of 2 µM. In other words, the single-digit micromolar range.

On to `O=C(Oc1ccc(C=Nc2ccc(F)cc2)cc1)c1cccs1` [Compound 78], for which, in experiment [1], the 50% inhibitory concentration (IC50) amounted to 13 µM.

As for `Oc1cc(OCc2ccc(C(F)(F)F)cc2)ccc1-c1cc[nH]n1` [Compound 44], in experiment [1], the IC50 is 5 µM.

Compound `O=S(=O)(Cc1cccc(C(F)(F)F)c1)c1snnc1-c1ccccc1` [Compound 36] returned a 50% inhibitory concentration (IC50) in experiment [1] of 5 µM. This counts as single-digit micromolar.

The record behind these values is patent publication US7553832B2, “Methods and compositions for specific inhibition of protein splicing by small molecules” (Boston Biomedical Research Institute, priority 2005, dated 2009).
